Test: xn = mol fraction of the nth substance listed
Conditions: Liquid; for viscosity: Concentric cylinders viscometry; for mass density: Vibrating tube method

Cc1ccc(C)c(C)c1 [1,2,4-trimethylbenzene] + CCCCO
Conditions	mass density [kg/m3]	viscosity [mPa·s]
313.15 K, 100 kPa, x2 = 0	859	–
313.15 K, 100 kPa, x2 = 0.1005	853.7	–
313.15 K, 100 kPa, x2 = 0.2261	847.1	–
313.15 K, 100 kPa, x2 = 0.2999	843.2	–
313.15 K, 100 kPa, x2 = 0.3966	837.7	–
313.15 K, 100 kPa, x2 = 0.5289	829.9	–
313.15 K, 100 kPa, x2 = 0.53	–	0.882
313.15 K, 100 kPa, x2 = 0.6367	822.9	–
313.15 K, 100 kPa, x2 = 0.637	–	0.994
313.15 K, 100 kPa, x2 = 0.7249	816.8	–
313.15 K, 100 kPa, x2 = 0.7975	–	1.254
313.15 K, 100 kPa, x2 = 0.7977	811.4	–
313.15 K, 100 kPa, x2 = 0.9131	802	1.516
313.15 K, 1000 kPa, x2 = 0	859.7	–
313.15 K, 1000 kPa, x2 = 0.1005	854.4	–
313.15 K, 1000 kPa, x2 = 0.2261	847.8	–
313.15 K, 1000 kPa, x2 = 0.2999	843.9	–
313.15 K, 1000 kPa, x2 = 0.3966	838.4	–
313.15 K, 1000 kPa, x2 = 0.5289	830.6	–
313.15 K, 1000 kPa, x2 = 0.6367	823.6	–
313.15 K, 1000 kPa, x2 = 0.7249	817.5	–
313.15 K, 1000 kPa, x2 = 0.7977	812	–
313.15 K, 1000 kPa, x2 = 0.9131	802.8	–
313.15 K, 5000 kPa, x2 = 0	862.6	–
313.15 K, 5000 kPa, x2 = 0.1005	857.3	–
313.15 K, 5000 kPa, x2 = 0.2261	850.7	–
313.15 K, 5000 kPa, x2 = 0.2999	846.9	–
313.15 K, 5000 kPa, x2 = 0.3966	841.5	–
313.15 K, 5000 kPa, x2 = 0.5289	833.7	–
313.15 K, 5000 kPa, x2 = 0.6367	826.7	–
313.15 K, 5000 kPa, x2 = 0.7249	820.6	–
313.15 K, 5000 kPa, x2 = 0.7977	815.2	–
313.15 K, 5000 kPa, x2 = 0.9131	805.9	–
313.15 K, 10000 kPa, x2 = 0	866	–
313.15 K, 10000 kPa, x2 = 0.1005	860.8	–
313.15 K, 10000 kPa, x2 = 0.2261	854.3	–
313.15 K, 10000 kPa, x2 = 0.2999	850.5	–
313.15 K, 10000 kPa, x2 = 0.3966	845.1	–
313.15 K, 10000 kPa, x2 = 0.5289	837.3	–
313.15 K, 10000 kPa, x2 = 0.6367	830.4	–
313.15 K, 10000 kPa, x2 = 0.7249	824.3	–
313.15 K, 10000 kPa, x2 = 0.7977	818.9	–
313.15 K, 10000 kPa, x2 = 0.9131	809.7	–
313.15 K, 20000 kPa, x2 = 0	872.6	–
313.15 K, 20000 kPa, x2 = 0.1005	867.5	–
313.15 K, 20000 kPa, x2 = 0.2261	861	–
313.15 K, 20000 kPa, x2 = 0.2999	857.2	–
313.15 K, 20000 kPa, x2 = 0.3966	851.9	–
313.15 K, 20000 kPa, x2 = 0.5289	844.1	–
313.15 K, 20000 kPa, x2 = 0.6367	837.3	–
313.15 K, 20000 kPa, x2 = 0.7249	831.2	–
313.15 K, 20000 kPa, x2 = 0.7977	825.8	–
313.15 K, 20000 kPa, x2 = 0.9131	816.7	–
313.15 K, 30000 kPa, x2 = 0	878.7	–
313.15 K, 30000 kPa, x2 = 0.1005	873.8	–
313.15 K, 30000 kPa, x2 = 0.2261	867.4	–
313.15 K, 30000 kPa, x2 = 0.2999	863.6	–
313.15 K, 30000 kPa, x2 = 0.3966	858.3	–
313.15 K, 30000 kPa, x2 = 0.5289	850.6	–
313.15 K, 30000 kPa, x2 = 0.6367	843.7	–
313.15 K, 30000 kPa, x2 = 0.7249	837.7	–
313.15 K, 30000 kPa, x2 = 0.7977	832.4	–
313.15 K, 30000 kPa, x2 = 0.9131	823.2	–
313.15 K, 40000 kPa, x2 = 0	884.5	–
313.15 K, 40000 kPa, x2 = 0.1005	879.6	–
313.15 K, 40000 kPa, x2 = 0.2261	873.2	–
313.15 K, 40000 kPa, x2 = 0.2999	869.5	–
313.15 K, 40000 kPa, x2 = 0.3966	864.1	–
313.15 K, 40000 kPa, x2 = 0.5289	856.5	–
313.15 K, 40000 kPa, x2 = 0.6367	849.7	–
313.15 K, 40000 kPa, x2 = 0.7249	843.7	–
313.15 K, 40000 kPa, x2 = 0.7977	838.4	–
313.15 K, 40000 kPa, x2 = 0.9131	829.4	–
313.15 K, 50000 kPa, x2 = 0	889.9	–
313.15 K, 50000 kPa, x2 = 0.1005	885	–
313.15 K, 50000 kPa, x2 = 0.2261	878.7	–
313.15 K, 50000 kPa, x2 = 0.2999	875	–
313.15 K, 50000 kPa, x2 = 0.3966	869.7	–
313.15 K, 50000 kPa, x2 = 0.5289	862.1	–
313.15 K, 50000 kPa, x2 = 0.6367	855.3	–
313.15 K, 50000 kPa, x2 = 0.7249	849.4	–
313.15 K, 50000 kPa, x2 = 0.7977	844	–
313.15 K, 50000 kPa, x2 = 0.9131	835	–
313.15 K, 60000 kPa, x2 = 0	895	–
313.15 K, 60000 kPa, x2 = 0.1005	890.2	–
313.15 K, 60000 kPa, x2 = 0.2261	883.9	–
313.15 K, 60000 kPa, x2 = 0.2999	880.2	–
313.15 K, 60000 kPa, x2 = 0.3966	875	–
313.15 K, 60000 kPa, x2 = 0.5289	867.4	–
313.15 K, 60000 kPa, x2 = 0.6367	860.6	–
313.15 K, 60000 kPa, x2 = 0.7249	854.7	–
313.15 K, 60000 kPa, x2 = 0.7977	849.3	–
313.15 K, 60000 kPa, x2 = 0.9131	840.3	–
313.15 K, 70000 kPa, x2 = 0	899.9	–
313.15 K, 70000 kPa, x2 = 0.1005	895.2	–
313.15 K, 70000 kPa, x2 = 0.2261	888.9	–
313.15 K, 70000 kPa, x2 = 0.2999	885.2	–
313.15 K, 70000 kPa, x2 = 0.3966	880	–
313.15 K, 70000 kPa, x2 = 0.5289	872.5	–
313.15 K, 70000 kPa, x2 = 0.6367	865.6	–
313.15 K, 70000 kPa, x2 = 0.7249	859.8	–
313.15 K, 70000 kPa, x2 = 0.7977	854.4	–
313.15 K, 70000 kPa, x2 = 0.9131	845.4	–
313.15 K, 80000 kPa, x2 = 0	904.6	–
313.15 K, 80000 kPa, x2 = 0.1005	899.9	–
313.15 K, 80000 kPa, x2 = 0.2261	893.7	–
313.15 K, 80000 kPa, x2 = 0.2999	890.1	–
313.15 K, 80000 kPa, x2 = 0.3966	884.8	–
313.15 K, 80000 kPa, x2 = 0.5289	877.3	–
313.15 K, 80000 kPa, x2 = 0.6367	870.5	–
313.15 K, 80000 kPa, x2 = 0.7249	864.6	–
313.15 K, 80000 kPa, x2 = 0.7977	859.3	–
313.15 K, 80000 kPa, x2 = 0.9131	850.3	–
313.15 K, 90000 kPa, x2 = 0	909	–
313.15 K, 90000 kPa, x2 = 0.1005	904.4	–
313.15 K, 90000 kPa, x2 = 0.2261	898.1	–
313.15 K, 90000 kPa, x2 = 0.2999	894.5	–
313.15 K, 90000 kPa, x2 = 0.3966	889.2	–
313.15 K, 90000 kPa, x2 = 0.5289	881.9	–
313.15 K, 90000 kPa, x2 = 0.6367	875.1	–
313.15 K, 90000 kPa, x2 = 0.7249	869.1	–
313.15 K, 90000 kPa, x2 = 0.7977	863.8	–
313.15 K, 90000 kPa, x2 = 0.9131	854.8	–
313.15 K, 100000 kPa, x2 = 0	913.3	–
313.15 K, 100000 kPa, x2 = 0.1005	908.7	–
313.15 K, 100000 kPa, x2 = 0.2261	902.5	–
313.15 K, 100000 kPa, x2 = 0.2999	898.8	–
313.15 K, 100000 kPa, x2 = 0.3966	893.6	–
313.15 K, 100000 kPa, x2 = 0.5289	886.2	–
313.15 K, 100000 kPa, x2 = 0.6367	879.4	–
313.15 K, 100000 kPa, x2 = 0.7249	873.5	–
313.15 K, 100000 kPa, x2 = 0.7977	868.2	–
313.15 K, 100000 kPa, x2 = 0.9131	859.2	–
313.15 K, 120000 kPa, x2 = 0	921.4	–
313.15 K, 120000 kPa, x2 = 0.1005	916.9	–
313.15 K, 120000 kPa, x2 = 0.2261	910.7	–
313.15 K, 120000 kPa, x2 = 0.2999	907.1	–
313.15 K, 120000 kPa, x2 = 0.3966	901.9	–
313.15 K, 120000 kPa, x2 = 0.5289	894.5	–
313.15 K, 120000 kPa, x2 = 0.6367	887.7	–
313.15 K, 120000 kPa, x2 = 0.7249	881.8	–
313.15 K, 120000 kPa, x2 = 0.7977	876.5	–
313.15 K, 120000 kPa, x2 = 0.9131	867.5	–
313.15 K, 140000 kPa, x2 = 0	928.9	–
313.15 K, 140000 kPa, x2 = 0.1005	924.3	–
313.15 K, 140000 kPa, x2 = 0.2261	918.7	–
313.15 K, 140000 kPa, x2 = 0.2999	914.5	–
313.15 K, 140000 kPa, x2 = 0.3966	909.6	–
313.15 K, 140000 kPa, x2 = 0.5289	902.2	–
313.15 K, 140000 kPa, x2 = 0.6367	895.5	–
313.15 K, 140000 kPa, x2 = 0.7249	889.6	–
313.15 K, 140000 kPa, x2 = 0.7977	884.4	–
313.15 K, 140000 kPa, x2 = 0.9131	875.3	–
323.15 K, 100 kPa, x2 = 0	–	0.62
323.15 K, 100 kPa, x2 = 0.1002	–	0.615
323.15 K, 100 kPa, x2 = 0.2327	–	0.631
323.15 K, 100 kPa, x2 = 0.3	–	0.653
323.15 K, 100 kPa, x2 = 0.3969	–	0.683
323.15 K, 100 kPa, x2 = 0.53	–	0.754
323.15 K, 100 kPa, x2 = 0.637	–	0.835

— the NIST ThermoML archive (doi:10.1016/j.jct.2017.03.006)
